# Reference: paper PMC4613811 (Lung cancer (Amsterdam, Netherlands), 2015)
# Where two headings read alike, the source gives them in different places.
# How the values were obtained:
# [1] = type: in vivo, human
# [2] = tested on: NSCLC with EGFR activating mutations; conditions: cited from earlier work
# [3] = cited from earlier work
# [4] = healthy volunteers, 150 mg dose, cited from earlier work
# [5] = NSCLC patients who currently smoke; cited from earlier work
# [6] = co-administered strong CYP3A4 inducer rifampin; cited from earlier work
# [7] = Plasma pharmacokinetics of dovitinib, phase I trial; type: in vivo; conditions: human, oral
# [8] = tested on: FMO3; conditions: in vitro; cited from earlier work
# [9] = tested on: CYP3A4; conditions: in vitro; cited from earlier work
# [10] = tested on: CYP1A2; conditions: caffeine as CYP1A2 substrate; cited from earlier work
# [11] = previous studies with dovitinib; cited from earlier work
# [12] = cited from earlier work; remark: listed apart in the source
# [13] = post-dovitinib relative to pre-dovitinib
compound,measurement,setting,value
C#Cc1cccc(Nc2ncnc3cc(OCCOC)c(OCCO)cc23)c1 [OSI-420],AUC0–24h,"[1]; Erlotinib alone (E), Day 14 ± 4, normalized to erlotinib 150 mg dose, mean ± SD",5381 ± 2982 ng·h/mL
same,"AUC0–24h geometric mean ratio (D + E:E), mean",[1]; [13],0.06
same,"Cmax geometric mean ratio (D + E:E), mean",[1]; [13],0.17
C#Cc1cccc(Nc2ncnc3cc(OCCOC)c(OCCOC)cc23)c1 [Erlotinib],AUC(0-t),"[1]; human, plasma, oral, 150 mg",41000 ng·h/mL
same,half-life,"[1]; human, plasma, oral, 150 mg",50 ± 53 h
same,decrease in AUC0–24 during dovitinib co-administration,"[1]; p < 0.01, six patients",97%
same,decrease in Cmax during dovitinib co-administration,"[1]; p = 0.02, six patients",93%
same,"AUC0–24h geometric mean ratio (D + E:E), mean",[1]; [13],0.03
same,"Cmax geometric mean ratio (D + E:E), mean",[1]; [13],0.07
same,"T1/2, terminal geometric mean ratio (D + E:E), mean",[1]; [13],0.10
same,time to development of resistance in the majority of patients,[2]; NSCLC patients with EGFR activating mutations,less than 1 year
same,response rates (RRs),[2]; NSCLC patients with known EGFR activating mutations,60–70%
same,median half-life,[3],36.2 h
same,AUC,[4]; non-smokers,"18,726 ng × h/mL"
same,Cmax,[4]; nonsmokers,1056 ng/mL
same,decrease in AUC in smokers,[4]; smokers vs non-smokers,64%
same,decrease in Cmax in smokers,[4]; smokers vs nonsmokers,35%
same,AUC,[4]; smokers,6718 ng·h/mL
same,Cmax,[4]; smokers,689 ng/mL
same,"steady-state trough concentration, fold lower compared to non-smokers",[5],2 fold
same,decrease in AUC with rifampin,[6],66%
same,decrease in Cmax with rifampin,[6],29%
CN1CCN(c2ccc3nc(-c4c(N)c5c(F)cccc5[nH]c4=O)[nH]c3c2)CC1 [Dovitinib],Tmax,[7],6 h
same,half-life,[7],32 ± 19 h
same,share of metabolism by FMO3,[8],65–83%
same,share of metabolism by CYP3A4,[9],17–35%
same,reduction of the AUC of caffeine,[10],96%
same,"decreased appetite, regardless of grade",[11],37.0%
same,"diarrhea, regardless of grade",[11],68%
same,"fatigue, regardless of grade",[11],40.5%
same,"nausea, regardless of grade",[11],66.7%
same,"vomiting, regardless of grade",[11],60.6%
same,effect of food on bioavailability,[12],food does not alter the bioavailability
